# From patent US6376500B2, “Substituted 2-(4-piperidyl)-4(3H)-quinazolinones and 2-(4-piperidyl)-4(3H)-azaquinazolinones” (Syntex (U.S.A.) LLC, priority 1999, dated 2002)
# Counter-ions that a name gives are not always drawn.
# Test system: not given
# Assay: not given
# Details: not given
row,melting point,SMILES
1,256 to 266 °C,Cl.O=c1[nH]c(C2CCN(CCc3c[nH]c4cc(F)ccc34)CC2)nc2cc(Cl)ccc12
2,292 to 294 °C,Cl.O=c1[nH]c(C2CCN(CCc3c[nH]c4cc(F)ccc34)CC2)nc2ccc(Cl)cc12
3,195 to 197 °C,Cl.Cl.O=c1[nH]c(C2CCN(CCc3c[nH]c4cc(F)ccc34)CC2)nc2ccc(F)cc12
4,263 to 264 °C,Cl.O=c1[nH]c(C2CCN(CCc3c[nH]c4cc(F)ccc34)CC2)nc2ccccc12
5,229 to 231 °C,COc1cc2nc(C3CCN(CCc4c[nH]c5cc(F)ccc45)CC3)[nH]c(=O)c2cc1OC.Cl
6,300 °C (dec.),Cl.O=c1[nH]c(C2CCN(CCc3c[nH]c4ccc(F)cc34)CC2)nc2cc(Cl)ccc12
7,268 to 270 °C,O=c1[nH]c(C2CCN(CCc3c[nH]c4ccccc34)CC2)nc2ccccc12 (as salt: hydrochloride)
8,283 °C (dec.),Cl.O=c1[nH]c(C2CCN(CCc3c[nH]c4ccc(F)cc34)CC2)nc2cc(F)ccc12
9,215 to 217 °C,Cl.Cl.O=c1[nH]c(C2CCN(CCc3c[nH]c4cc(F)ccc34)CC2)nc2cc(F)c(F)cc12
10,220 to 225 °C,Cl.O=c1[nH]c(C2CCN(CCc3c[nH]c4ccccc34)CC2)nc2cc(F)ccc12
11,290 °C (dec.),Cl.O=c1[nH]c(C2CCN(CCc3c[nH]c4ccc(F)cc34)CC2)nc2ccc(Cl)cc12
12,230 to 232 °C,COc1ccc2nc(C3CCN(CCc4c[nH]c5cc(F)ccc45)CC3)[nH]c(=O)c2c1.Cl
13,205 to 209 °C,Cl.O=c1[nH]c(C2CCN(CCc3c[nH]c4cc(F)ccc34)CC2)nc2cc(F)ccc12
14,190 to 195 °C,Cl.Cl.O=c1[nH]c(C2CCN(CCc3c[nH]c4ccccc34)CC2)nc2cc(Cl)ccc12
15,298 to 301 °C,Cl.O=c1[nH]c(C2CCN(CCc3c[nH]c4ccc(F)cc34)CC2)nc2ccccc12

# Test system: anesthetized dog
# Assay: Dog in vivo blood and intraurethral pressure assay
# Details: i.v., anesthetized mongrel dogs
# Method: The following describes an in vivo assay for measuring the relative effect of test compounds on hypogastric nerve stimulation-induced increases in intraurethral pressure and phenylephrine-induced increases in diastolic blood pressure in anesthetized dog.
# Mongrel dogs (10 to 20 kg) were fasted for 12 to 18 hours and anesthetized with […] (35 mg/kg, i.v.). An endotracheal tube was inserted and thereafter the lungs were mechanically ventilated with room air. The right femoral vein was isolated and cannulated with two polyethylene cannulae, one for the administration of a continuous infusion of phenobarbital sodium (5 to 10 mg/kg/hr) and the other for bolus administration of test substances. The right femoral artery was isolated and cannulated to the abdominal aorta with a fluid filled polyethylene cannula connected to an external pressure transducer for monitoring diastolic aortic pressure (DAP). The bladder was exposed via a ventral midline abdominal incision and emptied of urine through a 22 gauge needle. The bladder was cannulated through a stab incision with a water filled balloon catheter connected to an external pressure transducer for monitoring prostatic intraurethral pressure (IUP). The right hypogastric nerve (HGN) was carefully isolated and attached to a Dastre's electrode for nerve stimulation. […]
row,SMILES,inhibition of HGN stimulation-induced increases in IUP and phenylephrine-induced increases in DAP
1,COc1cc2nc(N3CCN(C(=O)c4ccco4)CC3)nc(N)c2cc1OC [prazosin],inhibited increases in IUP and DAP in similar fashion
